Laboratory results: patent US10613091B2, “Methods of developing a prognosis for pancreatic cancer and predicting responsiveness to cancer therapeutics” (DUKE UNIVERSITY, priority 2011, dated 2020)

System: pancreatic adenocarcinoma
Test: Overall survival (OS) by baseline plasma analytes, CALGB 80303 gemcitabine +/- bevacizumab
Format: in vivo, human
From the text: Eligibility of patients evaluated in this correlative analysis was described previously (Kindler et al., J Clin Oncol 2010 28(22):3617-3622). Briefly, eligible patients had histologically- or cytologically-confirmed pancreatic adenocarcinoma not amenable to curative surgery. Measurable disease was not required. Prior chemotherapy for metastatic disease was not permitted. […] Prior radiation was allowed if it was completed at least 4 weeks prior to enrollment and there was disease outside the radiation port. Patients were required to be at least 18 years of age and have a life expectancy of at least 12 weeks. Written informed consent was obtained from all patients participating in this correlative analysis.
Gemcitabine (1,000 mg/m^2) was administered intravenously over 30 minutes on days 1, 8, and 15 of a 28-day cycle. […]
Patterns of expression were analyzed at baseline and were correlated with overall survival (OS) and progression free survival (PFS) using univariate Cox proportional hazard regression models and multivariate Cox models with leave-one-out cross validation. Spearman's rank correlation coefficients were calculated for all pairs of analytes. […]
The primary endpoint of interest will be overall survival (OS) with correlation to the blood analytes; however, progression-free survival (PFS) was evaluated. […]

bevacizumab: monoclonal antibody against VEGF
benefit from bevacizumab (overall survival) (VEGF-D above Q1, more than 1092.35 pg/mL, p=0.035): predicted for lack of benefit
benefit from bevacizumab (overall survival) (VEGF-D below Q1, less than 1092.35 pg/mL, p=0.033): predicted for benefit
